According to patent US10980239B2, “Decontamination solution and its use for denaturation, modification, degradation, solubilisation and removal of proteins, nucleic acid molecules and microorganisms” (MULTIBIND BIOTEC GMBH, priority 2005, dated 2021):

Experiments:
Assay type in all cases: cell-based
[1] = system: recombinant Escherichia coli strain with an extra-chromosomal plasmid (YEp351); assay: Degradation of genomic DNA and extra-chromosomal genetic material inside microorganisms (FIG. 8, gel electrophoresis); conditions: 5 μl E. coli suspension, lysozyme 5 minutes, then 5 μl solution for 5 minutes
Procedure: A recombinant Escherichia coli strain with an extra-chromosomal plasmid (YEp351) was grown over night in LB, amp medium. Aliquots of 5 μl from the E. coli suspension were treated with 5 μl lysozyme solution (1 mg/ml) for 5 minutes and subsequently incubated with 5 μl of the listed solutions (1-5) for additional 5 minutes. After addition of bromphenol blue the samples were loaded into the gel slots and separated by electrophoresis of the DNA molecules.
(M: Marker 1 Kb Ladder; C: Control with H2O; 1: 70% Ethanol; 2: 0.5% Bacillozid™; 3: 0.5% SDS; 4: 0.5% Na-Azide+0.5% SDS; 5: 100 mM vitamin C+10 mM FeCl3+0.5% SDS; C: Control: 5 μl sterile H2O)

Saccharomyces cerevisiae = assay: Test for the anti-microbial action, colony count after plating; conditions: 10^6 cells in 50 μl mixed 1:1 with solution, 2 minutes incubation, plated, 1-3 days at 28° C.
Procedure: (§1) Freshly grown cultures of the listed microorganisms were adjusted to a cell number of 10^6 in a 50 μl volume and mixed in a ratio of 1:1 with 50 μl of water, 70% ethanol or the three component system (100 mM ascorbic acid, 10 mM FeCl3 and 0.5% SDS). After an incubation time of 2 minutes the 100 μl samples containing the microorganisms were plated onto the respective growth media. After an incubation period of 1-3 days at 28° C. (Saccharomyces cerevisiae and Candida parapsilosis) or 37° C. (Escherichia coli and Bacillus subtilis) the number of grown colonies was determined.

Bacillus subtilis = assay: as above; conditions: 10^6 cells in 50 μl mixed 1:1 with solution, 2 minutes incubation, plated, 1-3 days at 37° C.
Procedure: as §1

Escherichia coli = assay: as above; conditions: 10^6 cells in 50 μl mixed 1:1 with solution, 2 minutes incubation, plated, 1-3 days at 37° C.
Procedure: as §1

[2] = system: listed microorganisms (Escherichia coli, Bacillus subtilis, Saccharomyces cerevisiae, Candida parapsilosis); assay: Test for the anti-microbial action, summary for all listed microorganisms; conditions: 10^6 cells mixed 1:1 with solution, 2 minutes incubation, plated, 1-3 days
Procedure: as §1

CCCCCCCCCCCCOS(=O)(=O)[O-].[Na+] [sample 3, Sodiumdodecylsulfate]
effect on cells and DNA molecules seen in the gel [1]: lysis of the cells is observed

CCO [70% ethanol, ethanol]
effect on cells and DNA molecules seen in the gel [1]: precipitation of the lysate and the DNA | number of grown colonies (Saccharomyces cerevisiae): 0 | number of grown colonies (Bacillus subtilis): 0 | number of grown colonies (Escherichia coli): 0 | living cell colonies, all listed microorganisms [2]: did not show any living cell colony
